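Tested at 5 concentrations; 48 h exposure; 96-well plates; endpoints linearly interpolated, else capped at highest concentration. Definition used: TGI = concentration required for complete inhibition of growth.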
The compounds below were run on SK-MEL-2 melanoma (assay: DTP human tumour cell line panel, 48 h).

SMILES	TGI [µM]
[N-]=[N+]=N[C@H]1C[C@@H](CO)O[C@H]1n1cnc2c(N)ncnc21	> 100

These compounds were tested on SK-MEL-28 melanoma (assay: DTP human tumour cell line panel, 48 h).

SMILES	TGI [µM]
CC12CP(=O)(c3ccccc3)CC1C2(Cl)Cl (centres undefined)	> 100
CCN1CCC(O)(c2ccc(OC)cc2)C(C(=O)c2ccc(OC)cc2)C1 (centres undefined)	10.6
CC1CN(C(=O)CN2CCC(CCCCN(C)C)CC2)c2ccccc2NC1=O (centres undefined)	> 100
C1=CC(N(c2ccccc2)C2C=CCCC2)CCC1 (centres undefined)	> 100
[N-]=[N+]=N[C@H]1C[C@@H](CO)O[C@H]1n1cnc2c(N)ncnc21	> 100

Each compound was assayed on SK-MEL-5 melanoma (assay: DTP human tumour cell line panel, 48 h).

SMILES	TGI [µM]
CC12CP(=O)(c3ccccc3)CC1C2(Cl)Cl (centres undefined)	> 100
CCN1CCC(O)(c2ccc(OC)cc2)C(C(=O)c2ccc(OC)cc2)C1 (centres undefined)	29
CC1CN(C(=O)CN2CCC(CCCCN(C)C)CC2)c2ccccc2NC1=O (centres undefined)	> 100
C1=CC(N(c2ccccc2)C2C=CCCC2)CCC1 (centres undefined)	> 100
[N-]=[N+]=N[C@H]1C[C@@H](CO)O[C@H]1n1cnc2c(N)ncnc21	> 100

These compounds were tested on SK-OV-3 ovarian (assay: DTP human tumour cell line panel, 48 h).

SMILES	TGI [µM]
CC12CP(=O)(c3ccccc3)CC1C2(Cl)Cl (centres undefined)	> 100
CCN1CCC(O)(c2ccc(OC)cc2)C(C(=O)c2ccc(OC)cc2)C1 (centres undefined)	> 100
CC1CN(C(=O)CN2CCC(CCCCN(C)C)CC2)c2ccccc2NC1=O (centres undefined)	> 100
C1=CC(N(c2ccccc2)C2C=CCCC2)CCC1 (centres undefined)	> 100

These compounds were tested on SN12C renal (assay: DTP human tumour cell line panel, 48 h).

SMILES	TGI [µM]
CC12CP(=O)(c3ccccc3)CC1C2(Cl)Cl (centres undefined)	> 100
CCN1CCC(O)(c2ccc(OC)cc2)C(C(=O)c2ccc(OC)cc2)C1 (centres undefined)	42.5
CC1CN(C(=O)CN2CCC(CCCCN(C)C)CC2)c2ccccc2NC1=O (centres undefined)	> 100
C1=CC(N(c2ccccc2)C2C=CCCC2)CCC1 (centres undefined)	> 100
[N-]=[N+]=N[C@H]1C[C@@H](CO)O[C@H]1n1cnc2c(N)ncnc21	> 100

Each compound was assayed on SNB-19 CNS (assay: DTP human tumour cell line panel, 48 h).

SMILES	TGI [µM]
CC12CP(=O)(c3ccccc3)CC1C2(Cl)Cl (centres undefined)	> 100
CCN1CCC(O)(c2ccc(OC)cc2)C(C(=O)c2ccc(OC)cc2)C1 (centres undefined)	69.1
CC1CN(C(=O)CN2CCC(CCCCN(C)C)CC2)c2ccccc2NC1=O (centres undefined)	> 100
[N-]=[N+]=N[C@H]1C[C@@H](CO)O[C@H]1n1cnc2c(N)ncnc21	> 100

What follows are compounds tested on SNB-75 CNS (assay: DTP human tumour cell line panel, 48 h).

SMILES	TGI [µM]
CC12CP(=O)(c3ccccc3)CC1C2(Cl)Cl (centres undefined)	> 100
CCN1CCC(O)(c2ccc(OC)cc2)C(C(=O)c2ccc(OC)cc2)C1 (centres undefined)	30.6
[N-]=[N+]=N[C@H]1C[C@@H](CO)O[C@H]1n1cnc2c(N)ncnc21	> 100

These compounds were tested on SNB-78 CNS (assay: DTP human tumour cell line panel, 48 h).

SMILES	TGI [µM]
CC12CP(=O)(c3ccccc3)CC1C2(Cl)Cl (centres undefined)	> 100
CCN1CCC(O)(c2ccc(OC)cc2)C(C(=O)c2ccc(OC)cc2)C1 (centres undefined)	59.3
[N-]=[N+]=N[C@H]1C[C@@H](CO)O[C@H]1n1cnc2c(N)ncnc21	> 100

Each compound was assayed on SR leukemia (assay: DTP human tumour cell line panel, 48 h).

SMILES	TGI [µM]
CCN1CCC(O)(c2ccc(OC)cc2)C(C(=O)c2ccc(OC)cc2)C1 (centres undefined)	67.1
CC1CN(C(=O)CN2CCC(CCCCN(C)C)CC2)c2ccccc2NC1=O (centres undefined)	> 100

The compounds below were run on SW-620 colon (assay: DTP human tumour cell line panel, 48 h).

SMILES	TGI [µM]
CC12CP(=O)(c3ccccc3)CC1C2(Cl)Cl (centres undefined)	> 100
CCN1CCC(O)(c2ccc(OC)cc2)C(C(=O)c2ccc(OC)cc2)C1 (centres undefined)	25.9
CC1CN(C(=O)CN2CCC(CCCCN(C)C)CC2)c2ccccc2NC1=O (centres undefined)	> 100
C1=CC(N(c2ccccc2)C2C=CCCC2)CCC1 (centres undefined)	> 100
[N-]=[N+]=N[C@H]1C[C@@H](CO)O[C@H]1n1cnc2c(N)ncnc21	> 100

What follows are compounds tested on TK-10 renal (assay: DTP human tumour cell line panel, 48 h).

SMILES	TGI [µM]
CC12CP(=O)(c3ccccc3)CC1C2(Cl)Cl (centres undefined)	> 100
CCN1CCC(O)(c2ccc(OC)cc2)C(C(=O)c2ccc(OC)cc2)C1 (centres undefined)	10.4
C1=CC(N(c2ccccc2)C2C=CCCC2)CCC1 (centres undefined)	> 100
[N-]=[N+]=N[C@H]1C[C@@H](CO)O[C@H]1n1cnc2c(N)ncnc21	> 100

The compounds below were run on U251 CNS (assay: DTP human tumour cell line panel, 48 h).

SMILES	TGI [µM]
CC12CP(=O)(c3ccccc3)CC1C2(Cl)Cl (centres undefined)	> 100
CCN1CCC(O)(c2ccc(OC)cc2)C(C(=O)c2ccc(OC)cc2)C1 (centres undefined)	30.5
CC1CN(C(=O)CN2CCC(CCCCN(C)C)CC2)c2ccccc2NC1=O (centres undefined)	> 100
C1=CC(N(c2ccccc2)C2C=CCCC2)CCC1 (centres undefined)	> 100
[N-]=[N+]=N[C@H]1C[C@@H](CO)O[C@H]1n1cnc2c(N)ncnc21	> 100

Each compound was assayed on UACC-257 melanoma (assay: DTP human tumour cell line panel, 48 h).

SMILES	TGI [µM]
CCN1CCC(O)(c2ccc(OC)cc2)C(C(=O)c2ccc(OC)cc2)C1 (centres undefined)	48
CC1CN(C(=O)CN2CCC(CCCCN(C)C)CC2)c2ccccc2NC1=O (centres undefined)	> 100
[N-]=[N+]=N[C@H]1C[C@@H](CO)O[C@H]1n1cnc2c(N)ncnc21	> 100

Each compound was assayed on UACC-62 melanoma (assay: DTP human tumour cell line panel, 48 h).

SMILES	TGI [µM]
CC12CP(=O)(c3ccccc3)CC1C2(Cl)Cl (centres undefined)	> 100
CCN1CCC(O)(c2ccc(OC)cc2)C(C(=O)c2ccc(OC)cc2)C1 (centres undefined)	32.2
CC1CN(C(=O)CN2CCC(CCCCN(C)C)CC2)c2ccccc2NC1=O (centres undefined)	> 100
C1=CC(N(c2ccccc2)C2C=CCCC2)CCC1 (centres undefined)	> 100

Each compound was assayed on UO-31 renal (assay: DTP human tumour cell line panel, 48 h).

SMILES	TGI [µM]
CCN1CCC(O)(c2ccc(OC)cc2)C(C(=O)c2ccc(OC)cc2)C1 (centres undefined)	35.3
CC1CN(C(=O)CN2CCC(CCCCN(C)C)CC2)c2ccccc2NC1=O (centres undefined)	> 100
[N-]=[N+]=N[C@H]1C[C@@H](CO)O[C@H]1n1cnc2c(N)ncnc21	> 100

What follows are compounds tested on XF 498 CNS (assay: DTP human tumour cell line panel, 48 h).

SMILES	TGI [µM]
CC12CP(=O)(c3ccccc3)CC1C2(Cl)Cl (centres undefined)	> 100
CCN1CCC(O)(c2ccc(OC)cc2)C(C(=O)c2ccc(OC)cc2)C1 (centres undefined)	31.7
[N-]=[N+]=N[C@H]1C[C@@H](CO)O[C@H]1n1cnc2c(N)ncnc21	> 100
